Entries after “also recorded” stand apart in the source; their conditions may differ.
How the values were obtained:
[1] = system: CD1 (young male and female) or C57BL/6 (aged male) mice; assay: Cold tail flick somatic pain assay; assay type: in vivo, mouse; conditions: for analgesia in cold tail-flick assay: 100 mg/kg, all cohorts; for tail withdrawal time (latency) to cold stimulation: 32 and 100 mg/kg PO, 4 °C water
Experimental: Half of the tail was immersed in ice-cold water maintained at 4° C. For the tail-flick assays, we used n=70 aged male mice, n=90 young male mice, and n=120 young female mice. Based on the availability of mice at the time of the experiments, different numbers of animals were assigned in different cohorts of experimental animals. Tail flick assay experiments were conducted on an open bench in a dedicated room at the LSUHSC New Orleans Neuroscience Center of Excellence vivarium. Mice were allowed to acclimate to the laboratory environment for 1 h prior to testing. To restrain the mice for the test, disposable plastic 50 mL screw-capped conical centrifuge tubes were cut at the tip to create a 0.5 cm opening to allow the mice to breathe freely. Another 0.5 cm opening was cut into the cap to allow access of the tail to the water bath. A 500 mL glass beaker was filled with 450 mL of ice-cold distilled water maintained at 4° C. with the addition of ice and determined with a glass thermometer. Mice were held over the opening of the water bath, and their tails submerged approximately halfway into the water. The nociceptive threshold was taken as the latency until the mice flicked their tail tip or removed the tail. The time from immersion to the attempted tail tip removal was measured to 1/10th of a sec with a digital laboratory timer. To minimize damage to the tail, a 60-sec cut-off was utilized. […] Injections were at doses of 32 mg/kg and 100 mg/kg. 30 min post-drug administration tail-flick/withdrawal latency was measured.

[2] = system: male CD1 mice; assay: Baker yeast-induced hyperthermia antipyresis assay; assay type: in vivo, mouse; conditions: 15% yeast ip, drug 75 mg/kg per os
Experimental: Antipyresis experiments were carried out with n=60 CD-1 male mice weighing between 45-50 g. All mice were kept in a 12-h day/12-h night cycle with free access to food and water ad libitum. After habituating and acclimating the mice for a week, each mouse was briefly anesthetized for 1 min with 1% isoflurane and implanted subcutaneously a transmitter probe that records core body temperature—Implantable Programmable Temperature Transponder (IPTT-300) by Bio Medic Data Systems (BMDS), DE, USA. The mice were allowed to recover for at least one week from the surgery before any recordings were made and observed in their home cages prior to pyrogen challenge for inducing fever. Temperatures were recorded using the BMDS DAS-8027-IUS data reading system.
(15% yeast, […]) (MilliporeSigma, Billerica, MA, USA) was used to induce fever. All animals used in this assay were male CD1 mice, which were fasted overnight (15 h) before the start of the assay. Mice received either yeast in 0.9% saline (sterile) (vehicle) or just 0.9% saline as an ip injection. […] All mice that didn't show a significant change in body temperature or appeared sick post-pyrogen challenge were excluded (n=5) from subsequent drug administrations.
Drug injection/concentration: All drugs and vehicle (10% DMSO: 10% labrasol:80% PEG400) were administered by oral gavage, PO administration. […]

[3] = system: AM404; assay: LC-MS/MS quantification of AM404 production in periaqueductal gray; assay type: in vivo; conditions: rat, 32 mg/kg IP, 30 min, with CFA or vehicle
Experimental: Deuterated compound D10-SRP-001 was synthesized by Olon Ricerca Bioscience (Concord, OH), and purity was determined to be >99.9% by HPLC. This was used as pure analytical standard for detection of SRP-001 using an LC-MS/MS method. Similarly, pure analytical standard of AM404 (10 ng/mL) obtained from Cayman Chemical (Ann Arbor, MI) was used to characterize the full fragmentation pattern of AM404. […] Thirty min post-injection, the animals were sacrificed (same as in the CFA/von Frey model), their brains harvested, and the midbrain periaqueductal gray (PAG) region excised. SRP-001 or AM404 were extracted from the PAG using a liquid-liquid extraction method using 1:1 MeOH:H2O for LC-MS/MS and were loaded onto a liquid chromatography-tandem mass spectrophotometer for analysis. The mass spectrophotometer was operated in multiple reaction monitoring (MRM) mode using positive ion electrospray. D10-SRP-001 was detected by monitoring the m/z transition 416→186. AM404 was detected by monitoring the m/z transition 396→287.

[4] = system: CD1 (young male and female) or C57BL/6 (aged male) mice; assay: Acetic acid-induced abdominal writhing visceral pain assay; assay type: in vivo, mouse; conditions: for analgesia in acetic acid-induced writhing assay: 100 mg/kg, all cohorts; for antinociception in acetic acid writhing: 32 and 100 mg/kg PO, 0.4% acetic acid ip
Experimental: In this model of visceral pain, abdominal contraction (writhing) in which contraction of the abdominal muscles and stretching of the hind limbs is induced in mice in response to an ip injection of 0.4% acetic acid at a dose of 10 mL/kg 25 min after drug administration is assessed. Specifically, the number of writhes is counted for 10 min beginning 5 min after acetic acid injection. […] CD1 (young male and female) or C57BL/6 (aged male) mice were used. For the abdominal writhing assays, we used n=35 aged male mice, n=70 young male mice, and n=70 young female mice.

Question: How did the “analgesia in cold tail-flick assay” value [1] turn out when `CCN(CC)C(=O)c1ccccc1S(=O)(=O)NCC(=O)Nc1ccc(O)cc1` [SRP-001, N,N-diethyl-2-[[2-(4-hydroxyanilino)-2-oxo-ethyl]sulfamoyl]benzamide] was run?
Answer: significant analgesia

Question: And the “tail withdrawal time (latency) to cold stimulation” value [1]?
Answer: increased tail withdrawal time (latency)

Question: And the “equimolar (μmol/kg) ED50 / dose-response curve relative to ApAP” value ([1]; tail flick)?
Answer: comparable or improved ED50; also recorded: clear shift to the left

Question: And the “antipyresis, core body temperature” value [2]?
Answer: subsequent reduction in core body temperature

Question: And the “AM404 production in the PAG” value ([3]; 32 mg/kg)?
Answer: highest AM404 production; also recorded: produces more AM404 than ApAP

Question: And the “analgesia in acetic acid-induced writhing assay” value [4]?
Answer: significant analgesia

Question: What about the “antinociception in acetic acid writhing” value [4] of the same molecule?
Answer: experienced antinociception

Question: What about the “equimolar (μmol/kg) ED50 / dose-response curve relative to ApAP” value ([4]; acetic acid writhing) of the same molecule?
Answer: comparable or improved ED50; also recorded: shifted to the left; also recorded: clear shift to the left

Question: `CC(=O)Nc1ccc(O)cc1` [ApAP, acetaminophen] was tested. Which “analgesia in cold tail-flick assay” value [1] did it give?
Answer: significant analgesia

Question: What about the “tail withdrawal time (latency) to cold stimulation” value [1] of the same molecule?
Answer: increased tail withdrawal time (latency)

Question: And the “antipyresis, core body temperature” value [2]?
Answer: subsequent reduction in core body temperature

Question: And the “AM404 production in the PAG” value [3]?
Answer: diminished

Question: And the “analgesia in acetic acid-induced writhing assay” value [4]?
Answer: significant analgesia

Question: What about the “antinociception in acetic acid writhing” value [4] of the same molecule?
Answer: experienced antinociception
